This passage reports EC50 results from patent publication US6660737B2, “Medicinal uses of hydrazones” (The Procter & Gamble Company, priority 2001, dated 2003).

pEC50: −log10 of the molar value.

In this assay the test system is VEGF. Kind of assay: VEGF-ELISA assay: VEGF secretion from HL-1 cardiomyocyte cell line. The class given is cell-based, Murine. The note with it: HL-1 cells, 18 hr, VEGF in conditioned media by ELISA; read-out: EC50 (concentration of compound that induces the production of an amount of VEGF equal to half the maximum amount of VEGF induced by that compound). The protocol:
^1EC50 is the concentration of compound that induces the production of an amount of VEGF equal to half the maximum amount of VEGF induced by that compound.
Any compound of the present invention can be screened by a VEGF-ELISA assay. VEGF secretion is assayed in the HL-1 cardiomyocyte cell line as described in Claycomb, W. C., “HL-1 cells: a cardiac muscle cell line that contracts and retains phenotypic characteristics of the adult cardiomyocyte”, Proc. Natl. Acad. Sci U.S.A., Vol. 95, pp. 2979-84 (1998). For experiments, HL-1 cells are plated in 96-well plates at a density of 2×10^4 cells per well in growth medium: EXCEL 320 media (JRH Biosciences, Lenexia, Kans.) plus 10% fetal bovine serum (BioWhitaker), 100 nM retinoic acid (Sigma, St Louis, Mo.), 10 μM norepinephrine (Sigma), 10 μg/ml insulin (Life Technologies, Grand Island, N.Y.), 1× non-essential amino acid supplement (Life Technologies), 50 μg/ml endothelial cell growth supplement (Upstate Biotechnology, Lake Placid, N.Y.), 100 units/ml penicillin, 100 units/mil streptomycin (Life Technologies). After 24 hrs, the media is replaced with a low-growth media (HL-1 media with 2% fetal bovine serum and without endothelial cell growth supplement) containing test compounds with 0.5% dimethyl sulfoxide (DMSO). After 18 hrs, conditioned media from the treated cells was assayed for VEGF content with a Murine VEGF-ELISA kit (R & D Systems, Minneapolis, Minn.). The amount of VEGF secreted into the media over an 18 hr period is normalized to positive control wells which are treated with a maximally effective concentration (1 mM) of deferoxamine mesylate (Sigma, St. Louis) and are reported as “percent activity,” where the VEGF in unstimulated wells is defined as 0% and the VEGF in wells treated with 1 mM deferoxamine is defined as 100%. Potency is determined by stimulating cells with 10 concentrations of test compounds (200 nM to 100 μM) and fitting the data to a variable slope sigmoidal dose-response curve using GraphPad Prism version 3.00 for Windows 95 (GraphPad Software, San Diego, Calif.). Determinations for each test compound are performed in three separate experiments and the means ±standard deviation of the Log(EC50) and maximum response are evaluated. Compounds for pharmaceutical use are selected based upon the greatest percent activity.
On the technique in general: In an ELISA, binding on a coated surface is turned into a signal by an enzyme label.

`C(=N\Nc1nc2ccccc2s1)/c1ccccn1` [Example 6, N-Benzothiazol-2-yl-N′-pyridin-2-ylmethylene-hydrazine]: the pEC50 is 5.82.

As for `c1ccc(CNNc2ccccn2)nc1` [Example 4, N-Pyridin-2-yl-N′-pyridin-2-ylmethyl-hydrazine], the pEC50 is 5.24.

In the case of `C/C(=N\Nc1nc(C)cc(C)n1)c1ccccn1` [Example 12, N-(4,6-Dimethyl-pyrimidin-2-yl)-N′-(1-pyridin-2-yl-ethylidien)-hydrazine], the pEC50 is 5.32.

As to `FC(F)(F)c1cc(C(F)(F)F)c2ccc(N/N=C/c3ccccn3)nc2n1` [Example 8, N-(5,7-Bis-trifluoromethyl-[1,8]naphthyridin-2-yl)-N′-pyridin-2-ylmethylene-hydrazine], the pEC50 is 5.80.

Regarding `C/C(=N\Nc1ccc(C(F)(F)F)cc1)c1ccccn1` [Example 13, N-(1-Pyridin-2-yl-ethylidene)-N′-(4-trifluoromethyl-phenyl)-hydrazine], the pEC50 is 5.37.

For the molecule `C(=N\Nc1nnc2c(n1)[nH]c1ccccc12)/c1ccccn1` [Example 14, N-Pyridin-2-ylmethylene-N′-(9H-1,3,4,9-tetraaza-fluoren-2-yl)-hydrazine], the pEC50 is 5.64.

As to `CN(/N=C/c1ccccn1)c1ncc(C(F)(F)F)cc1Cl` [Example 11, N-(3-Chloro-5-trifluoromethyl-pyridin-2-yl)-N-methyl-N′pyridin-2-ylmethylene-hydrazine], the pEC50 is 4.82.

In the case of `C(=N\Nc1ccccc1)/c1ccccn1` [Example 16, N-Phenyl-N′-pyridin-2-ylmethylene-hydrazine], the pEC50 is 4.89.

In the case of `Clc1ccc(N/N=C/c2ccccn2)nn1` [Example 9, N-(6-Chloro-pyridazin-3-yl)-N′-pyridin-2-ylmethylene-hydrazine], the pEC50 is 5.17.

Turning to `Cc1sc2ncnc(N/N=C/c3c(O)ccc4ccccc34)c2c1C` [Example 27], the pEC50 was 5.74.

As for `Cc1cccc(/C=N/Nc2ccccn2)n1` [Example 25, N-(6-Methyl-pyridin-2-ylmethylene)-N′-pyridin-2-yl-hydrazine], the pEC50 is 4.54.

`C/C(=N\Nc1nnc2c(n1)[nH]c1ccccc12)c1ccccn1` [Example 15, N-(1-Pyridin-2-yl-ethylidene)-N-(9H-1,3,4,9-tetraaza-fluoren-2-yl)-hydrazine]: the pEC50 was 6.44.

Take `C(=N\Nc1ccc2ccccc2n1)/c1ccccn1` [Example 7, N-Pyridin-2-ylmethylene-N′-quinolin-2-yl-hydrazine]: the pEC50 was 5.50.

As for `Oc1ccccc1/C=N/Nc1ccccn1` [Example 20, 2-Pyridyl-(2-hydroxy-benzylidene)-hydrazide], the pEC50 is 5.24.

In the case of `Cc1ccccc1/C=N/Nc1ccccc1` [Example 17, N-(2-Methyl-benzylidene)-N′-phenyl-hydrazine], the pEC50 is 4.82.

Regarding `FC(F)(F)c1cnc(N/N=C/c2ccccn2)c(Cl)c1` [Example 10, N-(3-Chloro-5-trifluoromethyl-pyridin-2-yl)-N′-pyridin-2-ylmethylene-hydrazine], the pEC50 is 5.81.

`Oc1ccccc1/C=N/Nc1nccnc1Cl` [Example 19, 2-[(3-Chloro-pyrazin-2-yl)-hydrazonomethyl]-phenol]: the pEC50 is 4.82.

With `Cc1cccc(/C=N/Nc2ccc(Cl)nn2)n1` [Example 26, N-(6-Chloro-pyridazine-3-yl)-N′-(6-methyl-pyridin-2-ylmethylene)-hydrazine], the pEC50 was 4.40.

As for `C/C(=N\N(C)c1ccccn1)c1ccccn1` [Example 5, N-Methyl-N-pyridin-2-yl-N′-(1-pyridin-2-yl-ethylidene)-hydrazine], the pEC50 was 4.58.

As to `CN(/N=C/c1ccccn1)c1ccccn1` [Example 3, N-methyl-N-pyridin-2-yl-N′-pyridin-2-ylmethylene-hydrazine], the pEC50 was 6.12.

As to `C/C(=N\Nc1ccccn1)c1ccccn1` [Example 2, N-Pyridin-2-yl-N′-(1-pyridin-2-yl-ethylidene)hydrazine], the pEC50 was 6.19.

With `C(=N\Nc1ccccn1)/c1ccccn1` [Example 1, N-Pyridin-2-yl-N′-2-ylmethylene-hydrazine], the pEC50 is 5.80.

Turning to `Oc1ccccc1/C=N/Nc1ccccc1` [Example 18, 2-(Phenyl-hydrazonomethyl)-phenol], the pEC50 is 4.85.

Regarding `COc1cccc(/C=N/Nc2ccccn2)c1O` [Example 23, 2-Methoxy-6-(pyridin-2-yl-hydrazonomethyl)-phenol], the pEC50 was 5.15.

As to `Oc1ccc(/C=N/Nc2nc(N3CCCC3)nc(N3CCCC3)n2)cc1O` [Example 28, 4-[(4,6-Di-pyrrolidin-1-yl-[1,3,5]triazin-2-yl)-hydrazonomethyl]-benzene-1,2-diol], the pEC50 is 5.96.

With `Cc1ncc(CO)c(/C=N/Nc2ccccn2)c1O` [Example 22, 5-Hydroxymethyl-2-methyl-4-(pyridin-2-yl-hydrazonomethyl)-3-ol], the pEC50 is 5.75.

As to `Oc1ccc(/C=N/Nc2nccnc2Cl)c(O)c1` [Example 21, 4-[(3-Chloro-pyrazin-2-yl)-hydrazonomethyl]-benzene-1,3-diol], the pEC50 is 4.99.
